Results reported in PubChem BioAssay (NCI).
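Tested at 5 concentrations; 48 h exposure; 96-well plates; endpoints linearly interpolated, else capped at highest concentration. GI50 is the concentration that inhibits growth by half. TGI: total growth inhibition.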

Experiments:
Assay in all cases: NCI tumour cell line growth inhibition, 48 h
UACC-62 melanoma = test system: UACC-62 melanoma
MCF7 breast = test system: MCF7 breast
RXF 393 renal = test system: RXF 393 renal
K-562 leukemia = test system: K-562 leukemia
T-47D breast = test system: T-47D breast
CAKI-1 renal = test system: CAKI-1 renal
OVCAR-3 ovarian = test system: OVCAR-3 ovarian
OVCAR-4 ovarian = test system: OVCAR-4 ovarian
NCI-H522 lung = test system: NCI-H522 lung
SK-MEL-2 melanoma = test system: SK-MEL-2 melanoma

| SMILES | TGI (UACC-62 melanoma) | TGI (MCF7 breast) | TGI (RXF 393 renal) | TGI (K-562 leukemia) | TGI (T-47D breast) | TGI (CAKI-1 renal) | TGI (OVCAR-3 ovarian) | TGI (OVCAR-4 ovarian) | TGI (NCI-H522 lung) | TGI (SK-MEL-2 melanoma) | GI50 (UACC-62 melanoma) | GI50 (MCF7 breast) | GI50 (SK-MEL-2 melanoma) | GI50 (K-562 leukemia) | GI50 (T-47D breast) | GI50 (CAKI-1 renal) | GI50 (OVCAR-3 ovarian) | GI50 (OVCAR-4 ovarian) | GI50 (NCI-H522 lung) | GI50 (RXF 393 renal) |
| --- | --- | --- | --- | --- | --- | --- | --- | --- | --- | --- | --- | --- | --- | --- | --- | --- | --- | --- | --- | --- |
| CC(C)CCC[C@@H](C)[C@H]1CC[C@H]2[C@@H]3CC[C@H]4C[C@H](N)CC[C@]4(C)[C@H]3CC[C@]12C | 43.1 µM | 68.4 µM | > 100 µM | > 100 µM | > 100 µM | 59 µM | > 100 µM | 65.4 µM | 99.7 µM |  |  |  |  |  |  |  |  |  |  |  |
| Nc1cc2c(nnn2C2OC(COCc3ccccc3)C(OCc3ccccc3)C2OCc2ccccc2)c(=O)[nH]1 (configuration not stated) | 38.1 µM | 83.9 µM | 39.5 µM | 84.6 µM | > 100 µM | > 100 µM | > 100 µM | > 100 µM | > 100 µM | 28.3 µM |  |  |  |  |  |  |  |  |  |  |
| c1ccc(C2CC(c3cccc(Nc4ccncc4)c3)=NN2c2ccccc2)cc1 (configuration not stated) | 3.04 µM | 3.29 µM |  | 6.76 µM | 4.7 µM | 2.74 µM | 3.54 µM | 3.43 µM | 3.28 µM | 3.46 µM | 1.67 µM | 1.61 µM | 1.87 µM | 2.02 µM | 2 µM | 1.39 µM | 1.8 µM | 1.72 µM | 1.62 µM |  |
| CC(C)(C)OC(=O)NCC(=O)NC1c2ccsc2/C(=N/O)[C@H]1O (some centres not stated) | > 100 µM | > 100 µM | > 100 µM | > 100 µM | > 100 µM | > 100 µM | > 100 µM | > 100 µM |  | > 100 µM |  |  |  |  |  |  |  |  |  |  |
| CCCCCCNC(=O)c1cc(CCc2cc(O)ccc2O)ccc1O | 10.1 µM | 12.4 µM | 4.39 µM | 8.87 µM |  | 13.6 µM | 5.94 µM | 6.75 µM | 3.05 µM | 7.4 µM | 3.26 µM |  |  |  |  |  |  |  |  |  |
| COc1ccc2c(c1)CCN=C2Cc1cc(OC)c(OC)cc1CCCl | > 100 µM | > 100 µM | 91.4 µM | > 100 µM | > 100 µM | > 100 µM | > 100 µM | > 100 µM | 60.1 µM | > 100 µM |  |  |  |  |  |  |  |  |  |  |
| Cc1ccc(NP(=O)(Oc2ccccc2)N(CCCl)CCCl)cc1 (configuration not stated) | > 100 µM |  |  | > 100 µM |  | > 100 µM | > 100 µM | > 100 µM | > 100 µM | > 100 µM |  |  |  |  |  |  |  |  |  |  |
| CN(c1cc2ncc(=O)[nH]c2cc1NC(N)=NCc1ccc(Cl)cc1)C1CCCCC1 | 14 µM | 7.52 µM | 13 µM | 9.73 µM | 17 µM | 14.5 µM | 13.6 µM | 17.2 µM | 16.1 µM | 18.3 µM | 6.8 µM | 1.75 µM | 8.83 µM | 2.38 µM | 5.82 µM | 7.47 µM | 6.78 µM | 6.21 µM | 7.39 µM | 5.79 µM |
| CC(=O)Oc1c(C)c2c(O)c3c1C1=C(OCOC1=C(C)C3=O)/C(C)=C\C(C)(O)C(O)C(C)C(O)C1C(=O)OC(C(C)C1O)C(C)(O)/C=C/C=C(C)C(=O)N2 (configuration not stated) | > 100 µM | > 100 µM | 70.4 µM | > 100 µM | > 100 µM | 64.5 µM | > 100 µM |  | > 100 µM | > 100 µM |  |  |  |  |  |  |  |  |  |  |
